Laboratory results reported in patent US20180105548A1, “A novel compound (KS-513) isolated from Pseudolysimachion rotundum var. subintegrum, the composition comprising the same preventing or treating allergic disease, inflammatory disease, asthma or chronic obstructive pulmonary disease and the use thereof” (priority 2015, published 2018).

Assays:
Type in all cases: cell-based, mouse
[1] = tested on: TNF-alpha; assay: TNF-alpha production in LPS-treated RAW264.7 cell (ELISA); settings: for TNF-alpha production (relative % comparing with LPS treatment group) / TNF-alpha production, Inhibitory ratio (%): LPS 1 μg/mL, 24 hours
Method: (§1) RAW264.7 cell was inoculated into 96 well plates in the concentration of 1×10^5 cell/well to incubate for 18 hours. Various concentration of KS-513 compound (2.5, 5, 10 and 20 μM) was pre-treated therewith and 1 μg/mL of LPS (L6529, Sigma) was added thereto to incubate for 24 hours. The level of inflammatory cytokines such as IL-1beta, IL-6, TNF-alpha etc in the cell medium was determined by ELISA kit (IL-1beta:559603, IL-6:555240, TNF-alpha:5558534, BD) and the result was shown in FIG. 5 and Table 7-9.

[2] = tested on: NO; assay: NO production in LPS-treated RAW264.7 cell (Griess Reagent); settings: for NO production (relative % comparing with LPS treatment group) / NO production, Inhibitory ratio (%): LPS 1 μg/mL, 24 hours
Method: In order to determine the amount of NO reproduction in medium, following test was performed according to the method disclosed in the literature (Ding, A. H., et al., 1988, Release of reactive nitrogen intermediates and reactive oxygen intermediates from mouse peritoneal macrophages, Comparison of activating cytokines and evidence for independent production, Journal of Immunology, 141, pp 2407-2412).
RAW264.7 cell was inoculated into 96 well plates in the concentration of 1×10^5 cell/well to incubate for 18 hours. Various concentration of KS-513 compound (2.5, 5, 10 and 20 μM) was pre-treated therewith and 1 μg/mL of LPS (L6529, Sigma) was added thereto to incubate for 24 hours. The equivalent amount of Griess Reagent (G4410, Sigma) to the medium was added thereto and reacted at room temperature for 10 mins to determine the absorbance at 540 nm. The level of NO in the medium was determined using by standard curve expressed according to various concentration of sodium nitrite and the result was shown in Table 5 and FIG. 3.

[3] = tested on: COX-2; assay: mRNA expression of COX-2 in RAW264.7 cell line induced by LPS (real-time PCR); settings: for COX-2 mRNA expression, Fold (value compared with a negative group) / COX-2 mRNA expression, Inhibition ratio (IR) compared with LPS treatment group: LPS 1 μg/ml, 12 hours
Method: In order to determine the inhibitory effect on the mRNA expression of pro-inflammatory medicated enzyme such as iNOS or COX-2, and pro-inflammatory medicated cytokines such as IL-1beta, IL-6, TNF-alpha in RAW264.7 cell line induced by LPS, following test using by real-time PCR (real-time polymerase chain reaction, quantitative real time polymerase chain reaction, qPCR) was performed according to the method disclosed in the literature (Livak, K. J., Schimittgen T. D., 2001, Analysis of relative gene expression data using real-time quantitiative PCR and the 2 (-Delta Delta C(T) method, Methods 25, p 402-408):
(§2) RAW264.7 cell was inoculated into 6-well-plates in the concentration of 1×10^6 cell/well to incubate for 12 hours. Various concentration of KS-513 compound (2.5, 5, 10 and 20 μM) was pre-treated therewith and 1 μg/mL of LPS (L6529, Sigma) was added thereto to incubate for 12 hours.
To extract total RNA, RNA was extracted using by Triazol B (invitrogen) and cDNA was synthesized using by Omniscript RT kit (205113, Qiagen, Gmbh, Hilden, Germany) after the quantification. The synthesized cDNA was mixed with its template and the primers shown in Table 3 (SEQ.I.D. 1-14), performed to denaturation at 94° C. for 5 mins using by PCR mix (PCR master Mix, Bioneer, Korea), and reacted as follows: 1 cycle for pre-denaturation; at 95° C. for 30 sec, 60° C. for 45 sec, 72° C. for 45 sec, 30 cycles for denaturation; 10 mins at 72° C., 1cycle for final extension. (FIG. 2)

[4] = tested on: IL-1beta; assay: IL-1beta production in LPS-treated RAW264.7 cell (ELISA); settings: for IL-1beta production (relative % comparing with LPS treatment group) / IL-1beta production, Inhibitory ratio (%): LPS 1 μg/mL, 24 hours
Method: as §1

[5] = tested on: iNOS; assay: iNOS protein expression in RAW264.7 cell induced by LPS (Western blot); settings: 2.5, 5, 10 and 20 μM, LPS 1 μg/mL, 12 hours, FIG. 3A
Method: as §2, with “The expressed level of iNOS in RAW264.7 cell induced by LPS (1 μg/ml) was determined by using Western blot analysis. RAW264.7” for “RAW264.7”, “[…]” for “6-well-plates”
To extract protein, after washing the cell with ice-cold PBS three times, lysis buffer (50 mM Tris HCl (pH 8.0), 5 mM EDTA, 150 mM NaCl, 1% NP-40, 0.1% SDS, 1 mM PMSF, and protease inhibitor cocktail tablet (Roche, Germany, 11697498001) was added to the cell, reacted at 4° C. for 30 mins and centrifuged for 10 mins at the speed of 12,000 rpm to collect the supernatant.
The equivalent amount of the protein was isolated by SDS-PAGE and the protein was transferred to nitrocellulose membrane (BR162-0145, Bio-Rad). […] The product was reacted with ECL system and the amount of protein was determined by imaging analysis apparatus (LAS-4000, Fujifilm).
The quantitative determination of protein was performed by determining the absorbance using assay kit (Bradford protein assay kit, Thermo) at 595 nm and the result was shown in FIG. 3A.

[6] = vs LPS treatment group (1 μg/ml), FIG. 5

CO[C@@H]1C[C@H]2[C@H](OC(=O)c3ccc(O)cc3)[C@@H]3O[C@]3(CO)[C@H]2[C@H](O[C@@H]2O[C@H](CO)[C@@H](O)C(O)[C@H]2O)O1 (stereo partly drawn) [KS-513, (1aS, 1bS,2S,4S,5aR,6S,6aS)-1a-(hydroxymethyl)-4-methoxy-2-(((2S,3R,5S,6R)-3,4,5-trihydroxy-6-(hydroxymethyl)tetrahydro-2H-pyran-2-yl)oxy)octahydrooxireno[2′,3′:4,5]cyclopenta[1,2-c]pyran-6-yl 4-hydroxybenzoate]
TNF-alpha production (relative % comparing with LPS treatment group) ([1]; 2.5 μM): 97.38 ± 0.58%
TNF-alpha production, Inhibitory ratio (%) ([1]; 2.5 μM): 2.62%
TNF-alpha production (relative % comparing with LPS treatment group) ([1]; 5 μM): 86.12 ± 1.14%
TNF-alpha production, Inhibitory ratio (%) ([1]; 5 μM): 13.88%
TNF-alpha production (relative % comparing with LPS treatment group) ([1]; 10 μM): 68.03 ± 2.51%
TNF-alpha production, Inhibitory ratio (%) ([1]; 10 μM): 31.97%
TNF-alpha production (relative % comparing with LPS treatment group) ([1]; 20 μM): 58.44 ± 3.50%
TNF-alpha production, Inhibitory ratio (%) ([1]; 20 μM): 41.56%
level of produced TNF-alpha [1, 6]: reduced in a dose dependent manner
NO production (relative % comparing with LPS treatment group) ([2]; 2.5 μM): 91.89 ± 4.24%
NO production, Inhibitory ratio (%) ([2]; 2.5 μM): 8.21%
NO production (relative % comparing with LPS treatment group) ([2]; 5 μM): 83.69 ± 3.79%
NO production, Inhibitory ratio (%) ([2]; 5 μM): 16.41%
NO production (relative % comparing with LPS treatment group) ([2]; 10 μM): 80.06 ± 2.68%
NO production, Inhibitory ratio (%) ([2]; 10 μM): 20.04%
NO production (relative % comparing with LPS treatment group) ([2]; 20 μM): 72.16 ± 3.57%
NO production, Inhibitory ratio (%) ([2]; 20 μM): 27.94%
reproduced level of NO ([2]; based on LPS treatment (100%)): reduced in a dose dependent manner
COX-2 mRNA expression, Fold (value compared with a negative group) ([3]; 2.5 μM): 4.72 ± 0.21 Fold
COX-2 mRNA expression, Inhibition ratio (IR) compared with LPS treatment group ([3]; 2.5 μM): 39.91%
COX-2 mRNA expression, Fold (value compared with a negative group) ([3]; 5 μM): 2.64 ± 0.15 Fold
COX-2 mRNA expression, Inhibition ratio (IR) compared with LPS treatment group ([3]; 5 μM): 66.40%
COX-2 mRNA expression, Fold (value compared with a negative group) ([3]; 10 μM): 1.43 ± 0.50 Fold
COX-2 mRNA expression, Inhibition ratio (IR) compared with LPS treatment group ([3]; 10 μM): 81.81%
COX-2 mRNA expression, Fold (value compared with a negative group) ([3]; 20 μM): 0.97 ± 0.38 Fold
COX-2 mRNA expression, Inhibition ratio (IR) compared with LPS treatment group ([3]; 20 μM): 87.66%
expressed level of mRNA of COX-2 ([3]; various concentration, compared with control group treated with LPS (100%)): significantly decreased in a dose dependent manner
IL-1beta production (relative % comparing with LPS treatment group) ([4]; 2.5 μM): 95.17 ± 3.68%
IL-1beta production, Inhibitory ratio (%) ([4]; 2.5 μM): 4.83%
IL-1beta production (relative % comparing with LPS treatment group) ([4]; 5 μM): 76.69 ± 3.40%
IL-1beta production, Inhibitory ratio (%) ([4]; 5 μM): 23.31%
IL-1beta production (relative % comparing with LPS treatment group) ([4]; 10 μM): 61.56 ± 3.18%
IL-1beta production, Inhibitory ratio (%) ([4]; 10 μM): 38.44%
IL-1beta production (relative % comparing with LPS treatment group) ([4]; 20 μM): 46.10 ± 2.51%
IL-1beta production, Inhibitory ratio (%) ([4]; 20 μM): 53.9%
level of produced IL-1beta [4, 6]: reduced in a dose dependent manner
expressed level of iNOS protein [5]: reduced in a dose dependent manner
